Reference: PubChem BioAssay AID256 (DTP/NCI, 2004)
Where “and” joins values, the source holds several entries; their conditions need not be identical. Equal values may be shown once. Inconclusive results and toxic doses are left out.

Tested on: CD2F1 mice, L1210 leukemia ip, survival T/C
Assay: NCI In Vivo Anticancer Drug Screen. Data for tumor model L1210 Leukemia (intraperitoneal) in CD2F1 (CDF1) mice
Settings: higher = longer survival
Method in brief: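 Implant tumor; dose compound or vehicle; measure endpoint in both groups; report treated divided by control.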

[1] = endpoint: mean survival time, dose: 100.0 mg/kg/injection, schedule: Q01DX009 (ip), vehicle: other
[2] = endpoint: mean survival time, dose: 200.0 mg/kg/injection, schedule: Q01DX009 (ip), vehicle: other
[3] = endpoint: mean survival time, dose: 400.0 mg/kg/injection, schedule: Q01DX009 (ip), vehicle: other
[4] = endpoint: mean survival time, dose: 100.0 mg/kg/injection, schedule: Q01DX001 (ip), vehicle: saline with Tween-80
[5] = endpoint: mean survival time, dose: 400.0 mg/kg/injection, schedule: Q01DX001 (ip), vehicle: saline with Tween-80
[6] = endpoint: mean survival time, dose: 100.0 mg/kg/injection, schedule: Q04DX003 (ip), vehicle: saline with Tween-80
[7] = endpoint: mean survival time, dose: 200.0 mg/kg/injection, schedule: Q04DX003 (ip), vehicle: saline with Tween-80
[8] = endpoint: mean survival time, dose: 400.0 mg/kg/injection, schedule: Q04DX003 (ip), vehicle: saline with Tween-80
[9] = endpoint: mean survival time, dose: 100.0 mg/kg/injection, schedule: Q01DX009 (ip), vehicle: saline with Tween-80
[10] = endpoint: mean survival time, dose: 200.0 mg/kg/injection, schedule: Q01DX009 (ip), vehicle: saline with Tween-80
[11] = endpoint: mean survival time, dose: 400.0 mg/kg/injection, schedule: Q01DX009 (ip), vehicle: saline with Tween-80
[12] = endpoint: mean survival time, dose: 200.0 mg/kg/injection, schedule: Q01DX001 (ip), vehicle: saline with Tween-80

CC(C)CC(C)OP(=S)(S)OC(C)CC(C)C (stereo unspecified)
T/C (endpoint: mean survival time, dose: 12.5 mg/kg/injection, schedule: Q04DX002 (ip), vehicle: saline): 95 % of control | T/C (endpoint: mean survival time, dose: 25.0 mg/kg/injection, schedule: Q04DX002 (ip), vehicle: saline): 95 % of control | T/C (endpoint: mean survival time, dose: 50.0 mg/kg/injection, schedule: Q04DX002 (ip), vehicle: saline): 109 % of control

Cc1cc(C)c(O)c(C)c1.[Hg]
T/C (endpoint: mean survival time, dose: 1.56 mg/kg/injection, schedule: Q01DX001 (ip), vehicle: Klucel (hydroxypropylcellulose) (HPC)): 98 % of control | T/C (endpoint: mean survival time, dose: 3.13 mg/kg/injection, schedule: Q01DX001 (ip), vehicle: Klucel (hydroxypropylcellulose) (HPC)): 92 % of control | T/C (endpoint: mean survival time, dose: 6.25 mg/kg/injection, schedule: Q01DX001 (ip), vehicle: Klucel (hydroxypropylcellulose) (HPC)): 103 % of control

COc1cccc2c1C(=O)c1c(O)c3c(c(O)c1C2=O)CC(O)(C(C)=O)CC3OC1CC(N)C(O)C(C)O1 (stereo unspecified)
T/C (endpoint: mean survival time, dose: 0.25 mg/kg/injection, schedule: Q01DX001 (ip), vehicle: saline): 112 % of control | T/C (endpoint: mean survival time, dose: 0.5 mg/kg/injection, schedule: Q01DX001 (ip), vehicle: saline): 109 % of control | T/C (endpoint: mean survival time, dose: 0.63 mg/kg/injection, schedule: Q01DX009 (ip), vehicle: water): 105 % of control | T/C (endpoint: mean survival time, dose: 1.0 mg/kg/injection, schedule: Q01DX001 (ip), vehicle: saline): 115 % of control | T/C (endpoint: mean survival time, dose: 1.25 mg/kg/injection, schedule: Q01DX009 (ip), vehicle: water): 108 % of control | T/C (endpoint: mean survival time, dose: 2.0 mg/kg/injection, schedule: Q01DX001 (ip), vehicle: saline): 121 % of control | T/C (endpoint: mean survival time, dose: 2.5 mg/kg/injection, schedule: Q01DX009 (ip), vehicle: water): 115 % of control and 105 % of control | T/C (endpoint: mean survival time, dose: 5.0 mg/kg/injection, schedule: Q01DX009 (ip), vehicle: water): 105 % of control | T/C (endpoint: mean survival time, dose: 10.0 mg/kg/injection, schedule: Q01DX009 (ip), vehicle: water): 117 % of control | T/C (endpoint: mean survival time, dose: 20.0 mg/kg/injection, schedule: Q01DX009 (ip), vehicle: water): 117 % of control and 105 % of control | T/C (endpoint: mean survival time, dose: 40.0 mg/kg/injection, schedule: Q01DX009 (ip), vehicle: water): 117 % of control | T/C (endpoint: mean survival time, dose: 80.0 mg/kg/injection, schedule: Q01DX009 (ip), vehicle: water): 105 % of control

CC1(C)CC2(OC2c2cccc(Cl)c2)C(=O)c2ccccc21 (stereo unspecified)
T/C [1]: 94 % of control | T/C [2]: 94 % of control | T/C [3]: 91 % of control

C=C1C(=O)OC2C1C(OC(=O)/C(=C/C)COC(C)=O)CC1(CO1)C1C(OC(=O)/C(=C/C)CO)C=C(C)C21 (stereo unspecified)
T/C [4]: 88 % of control | T/C [5]: 93 % of control

CCN(CC)Cc1cc(Nc2ncnc3scc(C)c23)ccc1O
T/C [6]: 100 % of control | T/C [7]: 97 % of control | T/C [8]: 100 % of control

COc1ccc(C(=O)O)c(N)c1
T/C [9]: 95 % of control | T/C [6]: 94 % of control | T/C [10]: 92 % of control | T/C [7]: 97 % of control | T/C [11]: 101 % of control | T/C [8]: 97 % of control

CC(C)(C)C1=C(N=[N+]=[N-])C(=O)C(C(C)(C)C)=C(N=[N+]=[N-])C1=O
T/C (endpoint: mean survival time, dose: 100.0 mg/kg/injection, schedule: Q01DX001 (ip), vehicle: other): 104 % of control | T/C (endpoint: mean survival time, dose: 200.0 mg/kg/injection, schedule: Q01DX001 (ip), vehicle: other): 104 % of control | T/C (endpoint: mean survival time, dose: 400.0 mg/kg/injection, schedule: Q01DX001 (ip), vehicle: other): 101 % of control

NCCc1ccccn1
T/C [6]: 96 % of control | T/C [7]: 101 % of control

O=C1OC(=O)C2C1C1(c3ccccc3)OC2(c2ccccc2)c2ccccc21 (stereo unspecified)
T/C (endpoint: mean survival time, dose: 50.0 mg/kg/injection, schedule: Q01DX001 (ip), vehicle: saline with Tween-80): 100 % of control | T/C [4]: 100 % of control | T/C [12]: 100 % of control

CCN(CC)n1c(=O)[nH]n(CC)c1=O
T/C [4]: 101 % of control | T/C (endpoint: mean survival time, dose: 100.0 mg/kg/injection, schedule: Q04DX002 (ip), vehicle: saline with Tween-80): 101 % of control | T/C [12]: 97 % of control | T/C (endpoint: mean survival time, dose: 200.0 mg/kg/injection, schedule: Q04DX002 (ip), vehicle: saline with Tween-80): 93 % of control | T/C [5]: 100 % of control | T/C (endpoint: mean survival time, dose: 400.0 mg/kg/injection, schedule: Q04DX002 (ip), vehicle: saline with Tween-80): 101 % of control

CCOC(=O)C1CN(Cc2ccccc2)CCC1=O (stereo unspecified)
T/C (endpoint: mean survival time, dose: 100.0 mg/kg/injection, schedule: Q01DX009 (ip), vehicle: saline): 100 % of control | T/C (endpoint: mean survival time, dose: 200.0 mg/kg/injection, schedule: Q01DX009 (ip), vehicle: saline): 103 % of control

CC1(C)C(=O)OC(n2ccc(=O)[nH]c2=O)C1=O (stereo unspecified)
T/C (endpoint: median survival time, dose: 12.5 mg/kg/injection, schedule: Q01DX005 (ip), vehicle: saline): 103 % of control | T/C (endpoint: median survival time, dose: 25.0 mg/kg/injection, schedule: Q01DX005 (ip), vehicle: saline): 103 % of control | T/C (endpoint: median survival time, dose: 50.0 mg/kg/injection, schedule: Q01DX005 (ip), vehicle: saline): 101 % of control | T/C (endpoint: median survival time, dose: 100.0 mg/kg/injection, schedule: Q01DX005 (ip), vehicle: saline): 103 % of control | T/C (endpoint: median survival time, dose: 200.0 mg/kg/injection, schedule: Q01DX005 (ip), vehicle: saline): 103 % of control

Cc1cc(C)c2ccc(Cl)nc2n1
T/C (endpoint: mean survival time, dose: 75.0 mg/kg/injection, schedule: Q01DX001 (ip), vehicle: other): 100 % of control

NCCNc1ccc(NCCN)c2c1C(=O)c1ccccc1C2=O
T/C (endpoint: mean survival time, dose: 2.0 mg/kg/injection, schedule: Q01DX009 (ip), vehicle: acid diluted with saline): 159 % of control | T/C (endpoint: mean survival time, dose: 4.0 mg/kg/injection, schedule: Q01DX009 (ip), vehicle: acid diluted with saline): 175 % of control | T/C (endpoint: mean survival time, dose: 6.25 mg/kg/injection, schedule: Q01DX009 (ip), vehicle: distilled water + Tween-80): 156 % of control | T/C (endpoint: mean survival time, dose: 8.0 mg/kg/injection, schedule: Q01DX009 (ip), vehicle: acid diluted with saline): 345 % of control | T/C (endpoint: mean survival time, dose: 12.5 mg/kg/injection, schedule: Q01DX009 (ip), vehicle: distilled water + Tween-80): 227 % of control | T/C (endpoint: mean survival time, dose: 16.0 mg/kg/injection, schedule: Q01DX009 (ip), vehicle: acid diluted with saline): 98 % of control | T/C (endpoint: mean survival time, dose: 25.0 mg/kg/injection, schedule: Q01DX009 (ip), vehicle: distilled water + Tween-80): 272 % of control

CCOC(=O)/C(O)=C\c1cc(OC)nnc1Cl
T/C (endpoint: mean survival time, dose: 12.5 mg/kg/injection, schedule: Q04DX002 (ip), vehicle: saline with Tween-80): 114 % of control | T/C (endpoint: mean survival time, dose: 25.0 mg/kg/injection, schedule: Q04DX002 (ip), vehicle: saline with Tween-80): 101 % of control | T/C (endpoint: mean survival time, dose: 50.0 mg/kg/injection, schedule: Q04DX002 (ip), vehicle: saline with Tween-80): 101 % of control

O=C1C(=O)c2cccc3cccc1c23
T/C [4]: 100 % of control | T/C [12]: 92 % of control | T/C [5]: 97 % of control

O=C1CC2C=CCC12 (stereo unspecified)
T/C [9]: 98 % of control | T/C [10]: 98 % of control | T/C [11]: 100 % of control

CCCCCCCN(CCCCCCC)CC(O)c1cc2ccc(Br)cc2c2cccnc12 (stereo unspecified)
T/C [9]: 95 % of control | T/C [10]: 92 % of control

C=CCC1(C(=O)OCC)CCCCC1=O (stereo unspecified)
T/C [6]: 103 % of control | T/C [7]: 106 % of control | T/C [8]: 110 % of control

S=P12N3CCN1CCN2CC3
T/C (endpoint: mean survival time, dose: 7.7 mg/kg/injection, schedule: Q01DX001 (ip), vehicle: water): 101 % of control | T/C (endpoint: mean survival time, dose: 10.9 mg/kg/injection, schedule: Q01DX001 (ip), vehicle: water): 95 % of control | T/C (endpoint: mean survival time, dose: 15.7 mg/kg/injection, schedule: Q01DX001 (ip), vehicle: water): 100 % of control | T/C (endpoint: mean survival time, dose: 22.4 mg/kg/injection, schedule: Q01DX001 (ip), vehicle: water): 97 % of control | T/C (endpoint: mean survival time, dose: 32.0 mg/kg/injection, schedule: Q01DX001 (ip), vehicle: water): 100 % of control | T/C (endpoint: mean survival time, dose: 64.0 mg/kg/injection, schedule: Q01DX001 (ip), vehicle: saline): 95 % of control | T/C (endpoint: mean survival time, dose: 128.0 mg/kg/injection, schedule: Q01DX001 (ip), vehicle: saline): 98 % of control

Nc1c(/C=C/c2cc3cc(C4=NCCN4)ccc3o2)[nH]c2cc(C3=NCCN3)ccc12
T/C (endpoint: median survival time, dose: 3.12 mg/kg/injection, schedule: Q01DX009 (ip), vehicle: Klucel (hydroxypropylcellulose) (HPC)): 124 % of control | T/C (endpoint: median survival time, dose: 18.0 mg/kg/injection, schedule: Q01DX005 (ip), vehicle: Klucel (hydroxypropylcellulose) (HPC)): 178 % of control | T/C (endpoint: median survival time, dose: 25.0 mg/kg/injection, schedule: Q01DX005 (ip), vehicle: Klucel (hydroxypropylcellulose) (HPC)): 160 % of control | T/C (endpoint: median survival time, dose: 30.0 mg/kg/injection, schedule: Q01DX005 (ip), vehicle: Klucel (hydroxypropylcellulose) (HPC)): 297 % of control | T/C (endpoint: median survival time, dose: 50.0 mg/kg/injection, schedule: Q01DX005 (ip), vehicle: Klucel (hydroxypropylcellulose) (HPC)): 171 % of control and 237 % of control

O=[N+]([O-])c1ccc(OCCBr)cc1
T/C [1]: 91 % of control | T/C [2]: 98 % of control | T/C [3]: 94 % of control

C/C(=N/Nc1ccccc1)c1cccs1
T/C [4]: 102 % of control | T/C [12]: 102 % of control | T/C [5]: 94 % of control

Cc1ccc(OP(=O)(c2ccccc2)c2ccccc2)cc1
T/C [6]: 98 % of control | T/C [7]: 100 % of control | T/C [8]: 100 % of control
